Values after ≈ are worked out from the molar mass of the structure shown.
Experiments:
Assay type in all cases: cell-based
Escherichia coli NIHJ = assay: antimicrobial activity, minimum inhibitory concentration, Escherichia coli NIHJ
Proteus vulgaris HX 19 = assay: antimicrobial activity, minimum inhibitory concentration, Proteus vulgaris HX 19; conditions: HX19
Procedure: (§1) The antimicrobial activities of the compounds prepared in the previous Examples were determined in a usual manner and the minimum inhibitory concentrations (in terms of μg/ml) are set forth in the Table below.

[1] = tested on: Pseudomonas aeruginosa IID 5142; assay: antimicrobial activity, minimum inhibitory concentration, Pseudomonas aeruginosa IID 5142; conditions: IID5142
Procedure: as §1

Serratia No. 115 = assay: antimicrobial activity, minimum inhibitory concentration, Serratia No. 115
Procedure: as §1

[2] = tested on: Enterobacter aerogenes No. 101; assay: antimicrobial activity, minimum inhibitory concentration, Enterobacter aerogenes No. 101; conditions: Klebsiella aerogenes
Procedure: as §1

SMILES	MIC (Escherichia coli NIHJ)	MIC (Proteus vulgaris HX 19)	MIC [1]	MIC (Serratia No. 115)	MIC [2]
COC1(NC(=O)C(NC(=O)c2cnc3cccnc3c2O)c2ccco2)C(=O)N2C(C(=O)O)=C(CSc3nnnn3C)CSC21 (stereo not shown) [Example 35]	1.56 µg/mL (≈ 2.39 µM)	0.39 µg/mL (≈ 0.597 µM)	3.13 µg/mL (≈ 4.79 µM)	6.25 µg/mL (≈ 9.56 µM)	3.13 µg/mL (≈ 4.79 µM)
COC1(NC(=O)C(NC(=O)c2cnc3cccnc3c2O)C2=CCCCC2)C(=O)N2C(C(=O)O)=C(COC(C)=O)CSC21 (stereo not shown) [Example 36]	3.13 µg/mL (≈ 5.12 µM)	0.39 µg/mL (≈ 0.638 µM)	3.13 µg/mL (≈ 5.12 µM)	50 µg/mL (≈ 81.7 µM)	12.5 µg/mL (≈ 20.4 µM)
COC1(NC(=O)C(NC(=O)c2cnc3cncnc3c2O)c2ccc(O)cc2)C(=O)N2C(C(=O)[O-])=C(C[n+]3ccc(C(N)=O)cc3)CSC21 (stereo not shown) [Example 37]	6.25 µg/mL (≈ 9.1 µM)	0.78 µg/mL (≈ 1.14 µM)	12.5 µg/mL (≈ 18.2 µM)	50 µg/mL (≈ 72.8 µM)	6.25 µg/mL (≈ 9.1 µM)
COc1cc(C(NC(=O)c2cnc3cccnc3c2O)C(=O)NC2(OC)C(=O)N3C(C(=O)O)=C(COC(N)=O)CSC32)ccc1O (stereo not shown) [Example 39]	3.13 µg/mL (≈ 4.78 µM)	0.78 µg/mL (≈ 1.19 µM)	3.13 µg/mL (≈ 4.78 µM)	50 µg/mL (≈ 76.4 µM)	12.5 µg/mL (≈ 19.1 µM)
COC1(NC(=O)C(NC(=O)c2cnccc2O)c2ccc(O)c(F)c2)C(=O)N2C(C(=O)O)=C(CSc3nnnn3C)CSC21 (stereo not shown) [Example 41]	12.5 µg/mL (≈ 19.3 µM)	0.39 µg/mL (≈ 0.603 µM)	6.25 µg/mL (≈ 9.67 µM)	50 µg/mL (≈ 77.3 µM)	12.5 µg/mL (≈ 19.3 µM)
COC1(NC(=O)C(NC(=O)c2cnccc2O)c2cccc(O)c2)C(=O)N2C(C(=O)O)=C(CSc3nnc(CO)s3)CSC21 (stereo not shown) [Example 42]	12.5 µg/mL (≈ 18.9 µM)	0.78 µg/mL (≈ 1.18 µM)	12.5 µg/mL (≈ 18.9 µM)	50 µg/mL (≈ 75.7 µM)	25 µg/mL (≈ 37.8 µM)
COC1(NC(=O)C(NC(=O)c2cnc3cccnc3c2O)c2ccc(O)c(O)c2)C(=O)N2C(C(=O)O)=C(CSc3nnc(C)s3)CSC21 (stereo not shown) [Example 45]	3.13 µg/mL (≈ 4.4 µM)	0.78 µg/mL (≈ 1.1 µM)	6.25 µg/mL (≈ 8.78 µM)	12.5 µg/mL (≈ 17.6 µM)	12.5 µg/mL (≈ 17.6 µM)
COC1(NC(=O)C(NC(=O)c2cnc3cn[nH]c3c2O)c2ccc(O)cc2)C(=O)N2C(C(=O)O)=C(CSc3nnnn3C)CSC21 (stereo not shown) [Example 46]	1.56 µg/mL (≈ 2.33 µM)	0.39 µg/mL (≈ 0.583 µM)	6.25 µg/mL (≈ 9.35 µM)	6.25 µg/mL (≈ 9.35 µM)	6.25 µg/mL (≈ 9.35 µM)
COC1(NC(=O)C(NC(=O)c2cnc3cccnc3c2O)c2cccs2)C(=O)N2C(C(=O)O)=C(COC(N)=O)CSC21 (stereo not shown) [Example 48]	3.13 µg/mL (≈ 5.09 µM)	0.39 µg/mL (≈ 0.635 µM)	3.13 µg/mL (≈ 5.09 µM)	25 µg/mL (≈ 40.7 µM)	6.25 µg/mL (≈ 10.2 µM)
COC1(NC(=O)C(NC(=O)c2nnc(O)nc2O)c2ccccc2)C(=O)N2C(C(=O)O)=C(COC(C)=O)CSC21 (stereo not shown) [Example 49]	25 µg/mL (≈ 43.5 µM)	1.56 µg/mL (≈ 2.72 µM)	25 µg/mL (≈ 43.5 µM)	100 µg/mL (≈ 174 µM)	50 µg/mL (≈ 87 µM)
COC1(NC(=O)C(NC(=O)c2nnc(O)nc2O)c2ccc(O)cc2)C(=O)N2C(C(=O)O)=C(CSc3nnnn3C)CSC21 (stereo not shown) [Example 50]	12.5 µg/mL (≈ 19.3 µM)	1.56 µg/mL (≈ 2.41 µM)	12.5 µg/mL (≈ 19.3 µM)	50 µg/mL (≈ 77.3 µM)	25 µg/mL (≈ 38.7 µM)
COC1(NC(=O)C(NC(=O)c2nnc(SC)nc2O)c2ccccc2)C(=O)N2C(C(=O)O)=C(COC(N)=O)CSC21 (stereo not shown) [Example 51]	25 µg/mL (≈ 41.3 µM)	1.56 µg/mL (≈ 2.58 µM)	25 µg/mL (≈ 41.3 µM)	100 µg/mL (≈ 165 µM)	50 µg/mL (≈ 82.6 µM)

Further compounds by falling MIC (Escherichia coli NIHJ), results first:

MIC (Escherichia coli NIHJ)	MIC (Proteus vulgaris HX 19)	MIC [1]	MIC (Serratia No. 115)	MIC [2]	SMILES
25 µg/mL (≈ 42.3 µM)	1.56 µg/mL (≈ 2.64 µM)	25 µg/mL (≈ 42.3 µM)	100 µg/mL (≈ 169 µM)	50 µg/mL (≈ 84.5 µM)	COC1(NC(=O)C(NC(=O)c2nnc(O)nc2O)c2ccc(O)cc2)C(=O)N2C(C(=O)O)=C(COC(N)=O)CSC21 (stereo not shown) [Example 52]
25 µg/mL (≈ 37.7 µM)	1.56 µg/mL (≈ 2.35 µM)	25 µg/mL (≈ 37.7 µM)	100 µg/mL (≈ 151 µM)	50 µg/mL (≈ 75.4 µM)	COC1(NC(=O)C(NC(=O)c2nnc(S)nc2O)c2ccccc2)C(=O)N2C(C(=O)O)=C(CSc3nnc(C)s3)CSC21 (stereo not shown) [Example 53]
12.5 µg/mL (≈ 20.2 µM)	0.39 µg/mL (≈ 0.63 µM)	6.25 µg/mL (≈ 10.1 µM)	50 µg/mL (≈ 80.8 µM)	12.5 µg/mL (≈ 20.2 µM)	COC1(NC(=O)C(NC(=O)c2cnccc2O)c2cccs2)C(=O)N2C(C(=O)O)=C(CSc3nnnn3C)CSC21 (stereo not shown) [Example 34]
12.5 µg/mL (≈ 18.4 µM)	0.78 µg/mL (≈ 1.15 µM)	12.5 µg/mL (≈ 18.4 µM)	25 µg/mL (≈ 36.8 µM)	12.5 µg/mL (≈ 18.4 µM)	COC1(NC(=O)C(NC(=O)c2cnc3ccncc3c2O)c2ccc(O)cc2)C(=O)N2C(C(=O)O)=C(CSc3nnnn3C)CSC21 (stereo not shown) [Example 38]
12.5 µg/mL (≈ 16.8 µM)	1.56 µg/mL (≈ 2.1 µM)	12.5 µg/mL (≈ 16.8 µM)	50 µg/mL (≈ 67.3 µM)	25 µg/mL (≈ 33.7 µM)	COc1nc(OC)c2c(O)c(C(=O)NC(C(=O)NC3(OC)C(=O)N4C(C(=O)O)=C(CSc5nncs5)CSC43)c3ccc(O)cc3)cnc2n1 (stereo not shown) [Example 43]
12.5 µg/mL (≈ 21.2 µM)	0.78 µg/mL (≈ 1.32 µM)	12.5 µg/mL (≈ 21.2 µM)	100 µg/mL (≈ 170 µM)	50 µg/mL (≈ 84.8 µM)	COC1(NC(=O)C(NC(=O)c2cnccc2O)c2ccc(O)c(O)c2)C(=O)N2C(C(=O)O)=C(COC(N)=O)CSC21 (stereo not shown) [Example 44]
6.25 µg/mL (≈ 8.17 µM)	0.78 µg/mL (≈ 1.02 µM)	3.13 µg/mL (≈ 4.09 µM)	12.5 µg/mL (≈ 16.3 µM)	6.25 µg/mL (≈ 8.17 µM)	COC1(NC(=O)C(NC(=O)c2cnc3cccnc3c2O)c2cc(Cl)c(O)c(Cl)c2)C(=O)N2C(C(=O)O)=C(CSc3nnc(C)s3)CSC21 (stereo not shown) [Example 40]
3.13 µg/mL (≈ 4.37 µM)	0.39 µg/mL (≈ 0.544 µM)	6.25 µg/mL (≈ 8.72 µM)	12.5 µg/mL (≈ 17.4 µM)	6.25 µg/mL (≈ 8.72 µM)	COC1(NC(=O)C(NC(=O)c2cnc3cccnc3c2O)c2ccc(O)cc2)C(=O)N2C(C(=O)O)=C(CSc3ccc4nnnn4n3)CSC21 (stereo not shown) [Example 47]
